In ChEMBL document CHEMBL1201862, “PubChem BioAssay data set” (2004):
The source made the active and inactive calls.

Tests used:
[1] = biological target: Tyrosine-protein kinase JAK2 (Homo sapiens, UniProt O60674); format: functional;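 also: JAK2 tested as one member of a kinase panel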
[2] = biological target: Phosphorylase b kinase gamma catalytic chain, liver/testis isoform (Homo sapiens, UniProt P15735); format: functional;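 also: PHKG2 measured as one member of a kinome-wide kinase panel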
[3] = biological target: Proto-oncogene tyrosine-protein kinase receptor Ret (Homo sapiens, UniProt P07949); format: functional;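 also: measured within a kinome-wide profiling panel, RET as the panel member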
[4] = biological target: Serine/threonine-protein kinase D3 (Homo sapiens, UniProt O94806); format: functional;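 also: determined within a kinase panel screen, with PRKCN as the panel member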
[5] = biological target: Serine/threonine-protein kinase 17A (Homo sapiens, UniProt Q9UEE5); format: functional
[6] = biological target: Death-associated protein kinase 3 (Homo sapiens, UniProt O43293); format: functional;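 also: measured as one member of a kinome-wide profiling panel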
[7] = biological target: Cyclin-dependent kinase 2 (Homo sapiens, UniProt P24941); format: functional;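 also: CDK2 measured as one member of a broad kinome profiling panel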
Aurora kinase A = Aurora kinase A (Homo sapiens, UniProt O14965); format: functional;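 also: value from the Navigating the Kinome kinase panel profiling, panel entry STK6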
[8] = biological target: MAP kinase-activated protein kinase 2 (Homo sapiens, UniProt P49137); format: functional;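 also: measured as one member of a kinome-wide kinase panel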
[9] = biological target: Casein kinase II subunit alpha (Homo sapiens, UniProt P68400); format: functional
[10] = biological target: Serine/threonine-protein kinase PAK 1 (Homo sapiens, UniProt Q13153); format: functional
[11] = biological target: Homeodomain-interacting protein kinase 2 (Homo sapiens, UniProt Q9H2X6); format: functional;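 also: measured within a kinome-wide kinase profiling panel, HIPK2 being one panel member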
[12] = biological target: Protein kinase C gamma type (Homo sapiens, UniProt P05129); format: functional
[13] = biological target: Proto-oncogene tyrosine-protein kinase Src (Homo sapiens, UniProt P12931); format: functional;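 also: SRC entry within a kinome-wide kinase profiling panel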
[14] = biological target: Tyrosine-protein kinase Srms (Homo sapiens, UniProt Q9H3Y6); format: functional;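 also: SRMS measured as one member of a kinome-wide kinase profiling panel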
[15] = biological target: Casein kinase I isoform delta (Homo sapiens, UniProt P48730); format: functional;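 also: measured as one member (CSNK1D) of a kinome panel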
[16] = biological target: Protein kinase C iota type (Homo sapiens, UniProt P41743); format: functional;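 also: measured within a kinome-wide kinase panel, PRKCI as panel member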
[17] = biological target: Interleukin-1 receptor-associated kinase 1 (Homo sapiens, UniProt P51617); format: functional;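 also: IRAK1 tested as one member of a kinome panel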
[18] = biological target: 3-phosphoinositide-dependent protein kinase 1 (Homo sapiens, UniProt O15530); format: functional;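 also: value comes from the Navigating the Kinome panel, PDPK1 member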
[19] = biological target: Vascular endothelial growth factor receptor 1 (Homo sapiens, UniProt P17948); format: functional;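 also: measured within a kinome-wide profiling panel, FLT1 as the panel member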
[20] = biological target: Fibroblast growth factor receptor 3 (Homo sapiens, UniProt P22607); format: functional
[21] = biological target: Cyclin-dependent kinase 9 (Homo sapiens, UniProt P50750); format: functional;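 also: value from the CDK9 entry of a kinome-spanning kinase panel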
[22] = biological target: Lymphokine-activated killer T-cell-originated protein kinase (Homo sapiens, UniProt Q96KB5); format: functional;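 also: value comes from a kinase panel screen in which TOPK was one of the panel members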
[23] = biological target: Serine/threonine-protein kinase MRCK alpha (Homo sapiens, UniProt Q5VT25); format: functional
[24] = biological target: Macrophage colony-stimulating factor 1 receptor (Homo sapiens, UniProt P07333); format: functional;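 also: value comes from the Navigating the Kinome screening panel, CSF1R member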
Troponin, cardiac muscle = Troponin, cardiac muscle (Homo sapiens, UniProt P19429+P45379+P63316); test: compounds desensitizing RTF to calcium – biochemical, fluorescence, cardiac regulated thin filaments, triplicate IC50, dose response (AID 504742); format: protein-complex assay
SUMO E1/E2 = SUMO E1/E2 (Homo sapiens, UniProt P63279+Q9UBE0+Q9UBT2); test: SAR analysis of SUMOylation using HTRF in an in-Vitro dose response assay. [Related pubchem assays (depositor defined):AID2006, AID2011, AID2018, AID2069, AID2658]; format: functional
[25] = biological target: Glucose-6-phosphate 1-dehydrogenase (Homo sapiens, UniProt P11413); test: inhibition of Homo sapiens G6PD, dose series – biochemical, fluorescence, selectivity assay for P. falciparum G6PD inhibitor project, dose response (AID 504792); format: functional
[26] = biological target: T1, Sentrin-specific protease 8 (Homo sapiens, UniProt Q96LD8); format: functional;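 also: kinetic enzyme assay of SENP8 cleaving a Nedd8 protein substrate, dose-response confirmation of screening hits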
T1 sequence (Q96LD8 whole entry): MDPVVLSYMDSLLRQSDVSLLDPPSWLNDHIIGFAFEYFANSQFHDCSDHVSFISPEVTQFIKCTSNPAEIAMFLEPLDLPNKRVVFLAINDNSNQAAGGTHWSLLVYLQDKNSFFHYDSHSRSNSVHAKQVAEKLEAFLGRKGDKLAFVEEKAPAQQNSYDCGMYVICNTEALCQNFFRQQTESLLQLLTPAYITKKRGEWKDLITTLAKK

Streptokinase A = biological target: T2, Streptokinase A (Streptococcus pyogenes serotype M1, UniProt P10520); test: viability-normalized secreted streptokinase activity reduction – plasminogen activation absorbance, OD405, dose response (AID 1914); format: functional, Streptococcus pyogenes M1 GAS;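 also: secreted streptokinase activity via plasminogen activation per viability signal from cell pellet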
T2 sequence (P10520 whole entry): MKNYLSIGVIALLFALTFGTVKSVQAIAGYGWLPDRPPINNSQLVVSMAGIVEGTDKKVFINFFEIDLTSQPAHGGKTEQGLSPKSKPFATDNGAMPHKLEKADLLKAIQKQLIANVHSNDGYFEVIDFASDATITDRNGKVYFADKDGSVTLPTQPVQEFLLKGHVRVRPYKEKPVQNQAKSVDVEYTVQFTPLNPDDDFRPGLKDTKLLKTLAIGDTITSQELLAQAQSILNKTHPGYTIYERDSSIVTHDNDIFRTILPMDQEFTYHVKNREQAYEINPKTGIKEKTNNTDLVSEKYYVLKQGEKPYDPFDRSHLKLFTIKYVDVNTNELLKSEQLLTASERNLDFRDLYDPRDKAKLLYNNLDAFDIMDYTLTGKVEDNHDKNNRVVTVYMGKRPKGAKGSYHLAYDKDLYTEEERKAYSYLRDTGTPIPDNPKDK

Streptococcus = test: GAS UMAA2166 growth inhibition – luminescence, BacTiterGlo, counter-screen for streptokinase expression inhibitor project, dose response (AID 1915); format: functional, organism-based;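 also: potency for reduction of bacterial viability or growth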

## Cc1n[nH]c2ccc(-c3cncc(OCC(N)Cc4cccc(Cl)c4)c3)cc12 (centres undefined)
[1]
  Ki: 1260 nM (active)
[2]
  Ki: 794 nM (active)
[3]
  Ki: 1000 nM (active)
[4]
  Ki: 3.98 nM (active)
[5]
  Ki: 501 nM (active)
[6]
  Ki: 79.4 nM (active)
[7]
  Ki: 25.1 nM (active)
  pKi: 7.6
Aurora kinase A
  Ki: 631 nM (active)
[8]
  Ki: 631 nM (active)
[9]
  Ki: 3980 nM (active)
[10]
  Ki: 631 nM (active)
[11]
  Ki: 79.4 nM (active)
[12]
  Ki: 6.31 nM (active)
[13]
  Ki: > 2000 nM (inactive)
[14]
  Ki: > 1580 nM (inactive)
[15]
  Ki: 31.6 nM (active)
[16]
  Ki: 1000 nM (active)
[17]
  Ki: 1260 nM (active)
[18]
  Ki: 2000 nM (active)
[19]
  Ki: > 398 nM (inactive)
[20]
  Ki: > 2000 nM (inactive)
[21]
  Ki: 63.1 nM (active)
  pKi: 7.2
[22]
  Ki: 2510 nM (active)
[23]
  Ki: 7.94 nM (active)
  pKi: 8.1
[24]
  Ki: > 2510 nM (inactive)

## O=C(O)C1Nc2c(O)cc(Cl)c([N+](=O)[O-])c2C2C=CCC12 (centres undefined)
Troponin, cardiac muscle
  IC50: 11000 nM (inactive)

## CC(=O)NC1C(=O)N(CCN2CCOCC2)c2ccc(F)cc21 (centres undefined)
SUMO E1/E2
  IC50: 13400 nM (active)

## Clc1ccc2nc(-c3ccc(Br)s3)cn2c1
[25]
  IC50: > 80000 nM (inactive)

## O=C(CCc1ccccc1)NNc1cc(N2CCCCC2)nc(N2CCCCC2)n1
[26]
  IC50: 1010 nM (active)

## O=C1C=C(N2CCCCC2)c2ccccc2C1=O
Streptokinase A
  EC50: 17800 nM (active)
Streptococcus
  EC50: > 50000 nM (not active)
